In US6111065A, “Peptide inhibitors of inflammation mediated by selectins” (Centocor, Inc., priority 1994, dated 2000):
No end group written: not given here.

Target: T1, GMP-140 (Homo sapiens, UniProt P16109)
T1 construct: from tissue; host or cells: human platelets (outdated platelet packs from a blood bank)
T1 sequence (P16109 42-830): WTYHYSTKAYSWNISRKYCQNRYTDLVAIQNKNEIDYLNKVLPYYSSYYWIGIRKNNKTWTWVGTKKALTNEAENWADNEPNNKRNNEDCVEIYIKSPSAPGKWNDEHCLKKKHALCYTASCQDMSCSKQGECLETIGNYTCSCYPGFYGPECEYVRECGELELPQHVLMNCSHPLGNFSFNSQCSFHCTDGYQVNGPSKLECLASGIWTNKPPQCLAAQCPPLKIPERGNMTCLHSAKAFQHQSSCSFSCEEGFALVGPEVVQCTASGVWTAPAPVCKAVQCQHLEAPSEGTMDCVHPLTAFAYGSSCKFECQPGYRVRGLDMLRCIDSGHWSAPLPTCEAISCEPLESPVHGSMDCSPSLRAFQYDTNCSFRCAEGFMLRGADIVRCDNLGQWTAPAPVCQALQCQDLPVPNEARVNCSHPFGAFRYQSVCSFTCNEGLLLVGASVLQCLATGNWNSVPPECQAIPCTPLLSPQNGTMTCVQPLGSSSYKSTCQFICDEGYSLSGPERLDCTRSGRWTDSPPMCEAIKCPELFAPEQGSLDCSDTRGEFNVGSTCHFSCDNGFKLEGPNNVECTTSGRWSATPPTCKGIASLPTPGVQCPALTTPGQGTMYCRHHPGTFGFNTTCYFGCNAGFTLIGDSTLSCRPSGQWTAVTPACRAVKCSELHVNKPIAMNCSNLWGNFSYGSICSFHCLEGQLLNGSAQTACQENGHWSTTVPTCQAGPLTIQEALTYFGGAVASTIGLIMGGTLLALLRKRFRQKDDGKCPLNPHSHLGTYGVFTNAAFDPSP
Test: Inhibition of neutrophil binding to GMP-140 coated wells
Type: cell-based
Conditions: read-out: PERCENT INHIBITION OF NEUTROPHIL BINDING
Text: Peptides can be screened for their ability to inhibit adhesion to cells, for example, neutrophil adhesion to purified GMP-140 immobilized on plastic wells, using the assay described by Geng, et al., Nature 343, 757-760 (1990).
Human neutrophils are isolated from heparinized whole blood by density gradient centrifugation on Mono-Poly resolving media, Flow Laboratories. Neutrophil suspensions are greater than 98% pure and greater than 95% viable by trypan blue exclusion. For adhesion assays, neutrophils are suspended at a concentration of 2×10^6 cells/ml in Hanks' balanced salt solution containing 1.26 mM Ca^2+ and 0.81 mM Mg^2+ (HBSS, Gibco) with 5 mg/ml human serum albumin (HBSS/HSA). Adhesion assays are conducted in triplicate in 96-well microtiter plates, Corning, incubated at 4° C. overnight with 50 microliters of various protein solutions.
GMP-140 is isolated from human platelet lysates by immunoaffinity chromatography on antibody S12-Sepharose™ and ion-exchange chromatography on a Mono-Q™ column (FLPC, Pharmacia Fine Chemicals), as follows.
Outdated human platelet packs (100 units) obtained from a blood bank and stored at 4° C. are pooled, adjusted to 5 mM EDTA at pH 7.5, centrifuged at 4,000 rpm for 30 min in 1 liter bottles, then washed three times with 1 liter of 0.1 M NaCl, 20 mM Tris pH 7.5 (TBS), 5 mM EDTA, 5 mM benzamidine.
The pellets are then resuspended in a minimum amount of wash buffer and made 1 mM in DIFP, then frozen in 50 ml screwtop tubes at -80° C. The frozen platelets are thawed and resuspended in 50 ml TBS, 5 mM benzamidine, 5 mM EDTA pH 7.5, 100 µM leupeptin. The suspension is frozen and thawed two times in a dry ice-acetone bath using a 600 ml lyophilizing flask, then homogenized in a glass/teflon mortar and pestle and made 1 mM in DIFP. The NaCl concentration is adjusted to 0.5 M with a stock solution of 4 M NaCl. […]
Bound GMP-140 is eluted from the S12 Affigel with 100 ml of 80% ethylene glycol, 1 mM MES pH 6.0, 0.01% Lubrol PX. Peak fractions with absorbance at 280 nm are pooled. […]

- inhibition at 100 µM (peptide concentration 0.10 Mm): 19%
- inhibition at 300 µM (peptide concentration 0.30 Mm): 63%
- inhibition at 1000 µM (peptide concentration 1.0 Mm): 67%
Substance: RKEAEIWTDV-NH2 [RKEAEIWTDV-NH2, Arginyl-lysyl-glutamyl-alanyl-glutamyl-isoleucyl-tryptophyl-threonyl-aspartyl-valine amide]
